Laboratory results as given in patent US20250163104A1, “MACROCYCLIC IMMUNOMODULATORS” (priority 2021, published 2025).
Where a SMILES comes first, the peptide text is derived from it. Bridges are numbered along the chain shown (N, C = ends). [ ]: non-standard residue; d: D form. The star is where a group is joined. ξ: configuration not given here. Bip = N[C@@H](Cc1ccc(-c2ccccc2)cc1)C(=O)O; NMehPhe = CN[C@@H](CCc1ccccc1)C(=O)O; Cha = N[C@@H](CC1CCCCC1)C(=O)O; Ile(3ξ) = CCC(C)[C@H](N)C(=O)O; Thr(3ξ) = CC(O)[C@H](N)C(=O)O; NMeDab = CN[C@@H](CCN)C(=O)O; Carboxymethyl = O=C(O)C*; Orn = NCCC[C@H](N)C(=O)O; Dab = NCC[C@H](N)C(=O)O

Molecular target: T1, human PD-1 / PD-L1-Ig binding on Jurkat cell line over-expressing human PD-1 (Jurkat-PD-1) (Homo sapiens, UniProt Q15116)
T1 construct: expressed in transfected cells; host or cells: Jurkat
Assay: Jurkat-PD-1 Cell Binding High-Content Screening Assay (CBA)
Format: cell-based
Conditions: Jurkat-PD-1 cells, PE-labeled PD-L1-Ig 20 nM final; read-out: Jurkat HPD1_PDL1 IC50
In short: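 Binding of fluorescent PD-L1-Ig (phycoerythrin linked via the Ig tag, 20 nM final) to PD-1-overexpressing Jurkat cells was imaged after a 2 h, 37° C compound pretreatment and 1 hour ligand incubation.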

T1 sequence (Q15116 25-288): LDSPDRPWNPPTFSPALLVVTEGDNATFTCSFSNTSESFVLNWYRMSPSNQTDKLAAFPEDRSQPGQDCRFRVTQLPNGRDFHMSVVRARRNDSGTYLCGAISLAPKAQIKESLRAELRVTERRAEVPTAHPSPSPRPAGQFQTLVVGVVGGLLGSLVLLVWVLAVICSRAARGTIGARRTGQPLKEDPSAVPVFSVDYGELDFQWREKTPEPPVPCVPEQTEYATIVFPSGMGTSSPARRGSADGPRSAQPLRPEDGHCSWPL

Compound	IC50
CC(C)C[C@H]1NC(=O)[C@H](CCCN)NC(=O)[C@H](C(C)C)NC(=O)[C@H](Cc2ccc(-c3ccccc3)cc2)NC(=O)[C@H](C(C)C)NC(=O)[C@H](Cc2c[nH]c3ccccc23)NC(=O)[C@H](CC(=O)O)NC(=O)[C@H](Cc2ccc(OCC(=O)O)cc2)NC(=O)[C@H](CCc2ccccc2)N(C)C(=O)CSC[C@@H](C(=O)N[C@@H](C)C(N)=O)NC(=O)[C@H](CO)NC(=O)[C@H](C(C)C)NC(=O)[C@H](CC2CCCCC2)NC(=O)[C@H](CCN)NC1=O [Compound 2516] ({CH2CO}-[NMehPhe]Y(Carboxymethyl)DWV[Bip]V[Orn][dL][Dab][Cha]VSCA-NH2; thioether N-14)	10 nM
CCC(C)[C@@H]1NC(=O)[C@H](Cc2ccc(-c3ccccc3)cc2)NC(=O)[C@H](C(C)C)NC(=O)[C@H](Cc2c[nH]c3ccccc23)NC(=O)[C@H](CC(=O)O)NC(=O)[C@H](Cc2ccc(OCC(=O)O)cc2)NC(=O)[C@H](CCN)N(C)C(=O)CSC[C@@H](C(=O)N[C@@H](C)C(N)=O)NC(=O)[C@H](CO)NC(=O)[C@H](C(C)C)NC(=O)[C@H](CC2CCCCC2)NC(=O)[C@H](CCN)NC(=O)[C@@H](CC(C)C)NC(=O)[C@H](CCCN)NC1=O (stereo partly drawn) [Compound 2517] ({CH2CO}-[NMeDab]Y(Carboxymethyl)DWV[Bip][Ile(3ξ)][Orn][dL][Dab][Cha]VSCA-NH2; thioether N-14)	3.4 nM
CCC(C)[C@@H]1NC(=O)[C@H](Cc2ccc(-c3ccccc3)cc2)NC(=O)[C@H](C(C)C)NC(=O)[C@H](Cc2c[nH]c3ccccc23)NC(=O)[C@H](CC(=O)O)NC(=O)[C@H](Cc2ccc(OCC(=O)O)cc2)NC(=O)[C@H](Cc2ccncc2)NC(=O)CSC[C@@H](C(=O)N[C@@H](C)C(N)=O)NC(=O)[C@H](C(C)O)NC(=O)[C@H](C(C)C)NC(=O)[C@H](CC2CCCCC2)NC(=O)[C@H](CCN)NC(=O)[C@@H](CC(C)C)NC(=O)[C@H](CCCN)NC1=O (stereo partly drawn) [Compound 2519]	6.5 nM
CCC(C)[C@@H]1NC(=O)[C@H](Cc2ccc(-c3ccccc3)cc2)NC(=O)[C@H](C(C)C)NC(=O)[C@H](Cc2c[nH]c3ccccc23)NC(=O)[C@H](CC(=O)O)NC(=O)[C@H](Cc2ccc(OCC(=O)O)cc2)NC(=O)[C@H](CN)NC(=O)CSC[C@@H](C(=O)N[C@@H](C)C(N)=O)NC(=O)[C@H](C(C)O)NC(=O)[C@H](C(C)C)NC(=O)[C@H](CC2CCCCC2)NC(=O)[C@H](CCN)NC(=O)[C@@H](CC(C)C)NC(=O)[C@H](CCCN)NC1=O (stereo partly drawn) [Compound 2520]	10.5 nM
CCC(C)[C@@H]1NC(=O)[C@H](Cc2ccc(-c3ccccc3)cc2)NC(=O)[C@H](C(C)C)NC(=O)[C@H](Cc2c[nH]c3ccccc23)NC(=O)[C@H](CC(=O)O)NC(=O)[C@H](Cc2ccc(OCC(=O)O)cc2)NC(=O)[C@H](Cc2cccc3ccccc23)NC(=O)CSC[C@@H](C(=O)N[C@@H](C)C(N)=O)NC(=O)[C@H](C(C)O)NC(=O)[C@H](C(C)C)NC(=O)[C@H](CC2CCCCC2)NC(=O)[C@H](CCN)NC(=O)[C@@H](CC(C)C)NC(=O)[C@H](CCCN)NC1=O (stereo partly drawn) [Compound 2521]	38.1 nM
CC(C)C[C@H]1NC(=O)[C@H](CCCN)NC(=O)[C@H](C(C)C)NC(=O)[C@H](Cc2ccc(-c3ccccc3)cc2)NC(=O)[C@H](C(C)C)NC(=O)[C@H](Cc2c[nH]c3ccccc23)NC(=O)[C@H](CC(=O)O)NC(=O)[C@H](Cc2ccc(OCC(=O)O)cc2)NC(=O)[C@H](Cc2ccncc2)NC(=O)CSC[C@@H](C(=O)N[C@@H](C)C(N)=O)NC(=O)[C@H](C(C)O)NC(=O)[C@H](C(C)C)NC(=O)[C@H](CC2CCCCC2)NC(=O)[C@H](CCN)NC1=O (stereo partly drawn) [Compound 2522]	6.9 nM
CC(C)C[C@H]1NC(=O)[C@H](CCCN)NC(=O)[C@H](C(C)C)NC(=O)[C@H](Cc2ccc(-c3ccccc3)cc2)NC(=O)[C@H](C(C)C)NC(=O)[C@H](Cc2c[nH]c3ccccc23)NC(=O)[C@H](CC(=O)O)NC(=O)[C@H](Cc2ccc(OCC(=O)O)cc2)NC(=O)[C@@H]2CC(N)CN2C(=O)CSC[C@@H](C(=O)N[C@@H](C)C(N)=O)NC(=O)[C@H](C(C)O)NC(=O)[C@H](C(C)C)NC(=O)[C@H](CC2CCCCC2)NC(=O)[C@H](CCN)NC1=O (stereo partly drawn) [Compound 2523]	9.6 nM

Results, then the compound that gave them:

IC50	Compound
5.4 nM	CC(C)C[C@H]1NC(=O)[C@H](CCCN)NC(=O)[C@H](C(C)C)NC(=O)[C@H](Cc2ccc(-c3ccccc3)cc2)NC(=O)[C@H](C(C)C)NC(=O)[C@H](Cc2c[nH]c3ccccc23)NC(=O)[C@H](CC(=O)O)NC(=O)[C@H](Cc2ccc(OCC(=O)O)cc2)NC(=O)[C@H](CCO)NC(=O)CSC[C@@H](C(=O)N[C@@H](C)C(N)=O)NC(=O)[C@H](C(C)O)NC(=O)[C@H](C(C)C)NC(=O)[C@H](CC2CCCCC2)NC(=O)[C@H](CCN)NC1=O (stereo partly drawn) [Compound 2514]
16.3 nM	CNC[C@@H]1NC(=O)CSC[C@@H](C(=O)N[C@@H](C)C(N)=O)NC(=O)[C@H](C(C)O)NC(=O)[C@H](C(C)C)NC(=O)[C@H](CC2CCCCC2)NC(=O)[C@H](CCN)NC(=O)[C@@H](CC(C)C)NC(=O)[C@H](CCCN)NC(=O)[C@H](C(C)C)NC(=O)[C@H](Cc2ccc(-c3ccccc3)cc2)NC(=O)[C@H](C(C)C)NC(=O)[C@H](Cc2c[nH]c3ccccc23)NC(=O)[C@H](CC(=O)O)NC(=O)[C@H](Cc2ccc(OCC(=O)O)cc2)NC1=O (stereo partly drawn) [Compound 2515]
12.2 nM	CC(C)C[C@H]1NC(=O)[C@H](CCCN)NC(=O)[C@H](C(C)C)NC(=O)[C@H](Cc2ccc(-c3ccccc3)cc2)NC(=O)[C@H](C(C)C)NC(=O)[C@H](Cc2c[nH]c3ccccc23)NC(=O)[C@H](CC(=O)O)NC(=O)[C@H](Cc2ccc(O)cc2)NC(=O)[C@H](CCCNC(=N)N)NC(=O)CSC[C@@H](C(=O)N[C@@H](C)C(N)=O)NC(=O)[C@H](C(C)O)NC(=O)[C@H](C(C)C)NC(=O)[C@H](CC2CCCCC2)NC(=O)[C@H](CCN)NC1=O (stereo partly drawn) [Compound 2524] ({CH2CO}-RYDWV[Bip]V[Orn][dL][Dab][Cha]V[Thr(3ξ)]CA-NH2; thioether N-14)
17.3 nM	CC(C)C[C@H]1NC(=O)[C@H](CCCN)NC(=O)[C@H](C(C)C)NC(=O)[C@H](Cc2ccc(-c3ccccc3)cc2)NC(=O)[C@H](C(C)C)NC(=O)[C@H](Cc2c[nH]c3ccccc23)NC(=O)[C@H](CC(=O)O)NC(=O)[C@H](Cc2ccc(O)cc2)NC(=O)[C@H](CCC(N)=O)NC(=O)CSC[C@@H](C(=O)N[C@@H](C)C(N)=O)NC(=O)[C@H](C(C)O)NC(=O)[C@H](C(C)C)NC(=O)[C@H](CC2CCCCC2)NC(=O)[C@H](CCN)NC1=O (stereo partly drawn) [Compound 2525] ({CH2CO}-QYDWV[Bip]V[Orn][dL][Dab][Cha]V[Thr(3ξ)]CA-NH2; thioether N-14)
54.8 nM	CC(C)C[C@H]1NC(=O)[C@H](CCCN)NC(=O)[C@H](C(C)C)NC(=O)[C@H](Cc2ccc(-c3ccccc3)cc2)NC(=O)[C@H](C(C)C)NC(=O)[C@H](Cc2c[nH]c3ccccc23)NC(=O)[C@H](CC(=O)O)NC(=O)[C@H](Cc2ccc(O)cc2)NC(=O)[C@H](CC#N)NC(=O)CSC[C@@H](C(=O)N[C@@H](C)C(N)=O)NC(=O)[C@H](C(C)O)NC(=O)[C@H](C(C)C)NC(=O)[C@H](CC2CCCCC2)NC(=O)[C@H](CCN)NC1=O (stereo partly drawn) [Compound 2526]
